Measurements taken from patent publication US20030109503A1, “Pharmaceutical formulations comprising clavulanic acid alone or in combination with other beta-lactam antibiotics” (SmithKline Beecham p.l.c., priority 1995, published 2003).
Read-outs that look alike come from different tables or passages of the source.

Tests used:
[1] = system: β-lactamase producing strains of H. influenzae; experiment: MIC in agar, serial dilution, alone or with constant clavulanic acid; assay type: cell-based
Method: (§1) Determinations of the minimum inhibitory concentration (MIC) were performed in agar using serial dilutions of the test compounds alone or in the presence of constant concentrations of clavulanic acid (2 or 4 μg/ml). The agar used was Mueller Hinton (BBL) supplemented with 5% lysed horse blood in the case of H. influenzae and M. catarrhalis, except for B. fragilis where Wilkins-Chalgren agar (Oxoid) was used. A multipoint inoculator was used to drop 1 μl of undiluted culture of S. aureus, 10-fold dilutions of B. fragilis, H. influenzae and M. catarrhalis and 100-fold dilutions of E. coli and K. pneumoniae onto the surface of the agar, to give an inoculum of approximately 10^4 to 10^5 cfu/spot.

[2] = system: β-lactamase producing strains of S. aureus; experiment: as above; assay type: cell-based
Method: as §1

[3] = system: plasmid mediated β-lactamase producing strains of E. coli; experiment: as above; assay type: cell-based, Escherichia coli
Method: as §1

[4] = system: plasmid mediated β-lactamase producing strains of K. pneumoniae; experiment: as above; assay type: cell-based, Klebsiella pneumoniae
Method: as §1

[5] = system: β-lactamase producing strains of M. catarrhalis; experiment: as above; assay type: cell-based, Moraxella catarrhalis
Method: as §1

[6] = system: B. fragilis; experiment: MIC in agar (Wilkins-Chalgren), serial dilution, alone or with constant clavulanic acid; assay type: cell-based, Bacteroides fragilis
Method: as §1

[7] = clavulanic acid at 2 or 4 μg/ml
[8] = Gmean MIC values reduced considerably

N[C@@H](C(=O)N[C@@H]1C(=O)N2C(C(=O)O)=C(Cl)CS[C@H]12)c1ccccc1 [cefaclor]
MIC range ([1]; H.influenzae (15 strains), CA2/CA4 = constant 2 or 4 μg/ml clavulanic acid): 2 to 16 µg/mL
MIC90 ([1]; Haemophilus influenzae, H.influenzae (15 strains), CA2/CA4 = constant 2 or 4 μg/ml clavulanic acid): 16 µg/mL
MIC ([1]; Haemophilus influenzae, H.influenzae (15 strains), CA2/CA4 = constant 2 or 4 μg/ml clavulanic acid, read-out: Gmean (geometric mean MIC)): 7.64 µg/mL
MIC ([1]; Haemophilus influenzae, H.influenzae (15 strains), CA2/CA4 = constant 2 or 4 μg/ml clavulanic acid, read-out: MIC75): 16 µg/mL
MIC range ([2]; S.aureus P+ (10 strains), CA2/CA4 = constant 2 or 4 μg/ml clavulanic acid): 1 to 256 µg/mL
MIC90 ([2]; Staphylococcus aureus, S.aureus P+ (10 strains), CA2/CA4 = constant 2 or 4 μg/ml clavulanic acid): 64 µg/mL
MIC ([2]; Staphylococcus aureus, S.aureus P+ (10 strains), CA2/CA4 = constant 2 or 4 μg/ml clavulanic acid, read-out: Gmean (geometric mean MIC)): 12.4 µg/mL
MIC ([2]; Staphylococcus aureus, S.aureus P+ (10 strains), CA2/CA4 = constant 2 or 4 μg/ml clavulanic acid, read-out: MIC75): 32 µg/mL
MIC ([2]; Staphylococcus aureus, in the presence of 2 μg/ml clavulanic acid, read-out: geometric mean (Gmean) MIC of cefaclor): 1.13 µg/mL
MIC ([2]; Staphylococcus aureus, in the presence of 4 μg/ml clavulanic acid, read-out: geometric mean (Gmean) MIC of cefaclor): 0.73 µg/mL
MIC range ([3]; E.coli R+ (11 strains), CA2/CA4 = constant 2 or 4 μg/ml clavulanic acid): 1 to 32 µg/mL
MIC90 ([3]; Escherichia coli): 32 µg/mL
MIC ([3]; Escherichia coli, read-out: Gmean (geometric mean MIC)): 4.32 µg/mL
MIC ([3]; Escherichia coli, read-out: MIC75): 4 µg/mL
MIC90 ([4]; Klebsiella pneumoniae): 256 µg/mL
MIC ([4]; Klebsiella pneumoniae, read-out: Gmean (geometric mean MIC)): 17.7 µg/mL
MIC ([4]; Klebsiella pneumoniae, read-out: MIC75): 256 µg/mL
MIC range ([5]; M.catarrhalis (14 strains), CA2/CA4 = constant 2 or 4 μg/ml clavulanic acid): 1 to 8 µg/mL
MIC90 ([5]; Moraxella catarrhalis, M.catarrhalis (14 strains), CA2/CA4 = constant 2 or 4 μg/ml clavulanic acid): 8 µg/mL
MIC ([5]; Moraxella catarrhalis, M.catarrhalis (14 strains), CA2/CA4 = constant 2 or 4 μg/ml clavulanic acid, read-out: Gmean (geometric mean MIC)): 4.88 µg/mL
MIC ([5]; Moraxella catarrhalis, M.catarrhalis (14 strains), CA2/CA4 = constant 2 or 4 μg/ml clavulanic acid, read-out: MIC75): 8 µg/mL
MIC range ([6]; B.fragilis (19 strains), CA2/CA4 = constant 2 or 4 μg/ml clavulanic acid): 64 to 512 µg/mL
MIC90 ([6]; Bacteroides fragilis, B.fragilis (19 strains), CA2/CA4 = constant 2 or 4 μg/ml clavulanic acid): 128 µg/mL
MIC ([6]; Bacteroides fragilis, B.fragilis (19 strains), CA2/CA4 = constant 2 or 4 μg/ml clavulanic acid, read-out: Gmean (geometric mean MIC)): 151 µg/mL
MIC ([6]; Bacteroides fragilis, B.fragilis (19 strains), CA2/CA4 = constant 2 or 4 μg/ml clavulanic acid, read-out: MIC75): 4 µg/mL

O=C(O)[C@H]1/C(=C/CO)O[C@@H]2CC(=O)N21 [clavulanic acid]
effect of clavulanic acid on the activity of cefaclor [1, 7]: improved the activity of cefaclor
effect of clavulanic acid on the activity of cefaclor ([2]; 2 and 4 μg/ml clavulanic acid): markedly improved the activity of cefaclor
effect of clavulanic acid on the activity of cefaclor [3, 8]: improved
effect of clavulanic acid on the activity of cefaclor [4, 8]: improved
effect of clavulanic acid on the activity of cefaclor [5, 7]: improved the activity of cefaclor
effect of clavulanic acid on the activity of cefaclor [6, 7]: improved the activity of cefaclor
